From ChEMBL document CHEMBL4387768, “New dual ligands for the D2 and 5-HT1A receptors from the group of 1,8-naphthyl derivatives of LCAP” (Bioorg Med Chem Lett, 2019)
pKi: −log10 of the molar value.

How the values were obtained:
Assay type in all cases: cell-based
[1] = target: 5-hydroxytryptamine receptor 2A (Homo sapiens, UniProt P28223); test: Displacement of [3H]-ketanserin from recombinant human 5HT2A receptor expressed in CHOK1 cells measured after 1 hr by microbeta counting method
D(2) dopamine receptor = D(2) dopamine receptor (Homo sapiens, UniProt P14416); test: Displacement of [3H]-raclopride from recombinant human D2L receptor expressed in HEK293 cells measured after 1 hr by microbeta counting method
Chain of D(2) dopamine receptor (P14416 whole entry): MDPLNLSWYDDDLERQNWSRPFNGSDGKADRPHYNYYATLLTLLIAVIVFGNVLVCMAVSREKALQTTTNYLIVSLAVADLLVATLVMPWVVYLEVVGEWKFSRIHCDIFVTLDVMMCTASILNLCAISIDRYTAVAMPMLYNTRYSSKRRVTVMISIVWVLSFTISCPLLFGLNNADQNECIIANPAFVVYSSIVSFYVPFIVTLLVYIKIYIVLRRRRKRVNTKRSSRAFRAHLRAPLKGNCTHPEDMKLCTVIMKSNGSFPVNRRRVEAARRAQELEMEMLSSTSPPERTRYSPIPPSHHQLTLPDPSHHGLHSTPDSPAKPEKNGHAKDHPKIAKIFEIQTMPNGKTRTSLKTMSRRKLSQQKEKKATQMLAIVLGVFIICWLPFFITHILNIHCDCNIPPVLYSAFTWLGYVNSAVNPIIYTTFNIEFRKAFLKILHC

[2] = target: 5-hydroxytryptamine receptor 6 (Homo sapiens, UniProt P50406); test: Displacement of [3H]-LSD from recombinant human 5HT6 receptor expressed in HEK293 cells measured after 1 hr by microbeta counting method
Chain of 5-hydroxytryptamine receptor 6 (P50406 whole entry): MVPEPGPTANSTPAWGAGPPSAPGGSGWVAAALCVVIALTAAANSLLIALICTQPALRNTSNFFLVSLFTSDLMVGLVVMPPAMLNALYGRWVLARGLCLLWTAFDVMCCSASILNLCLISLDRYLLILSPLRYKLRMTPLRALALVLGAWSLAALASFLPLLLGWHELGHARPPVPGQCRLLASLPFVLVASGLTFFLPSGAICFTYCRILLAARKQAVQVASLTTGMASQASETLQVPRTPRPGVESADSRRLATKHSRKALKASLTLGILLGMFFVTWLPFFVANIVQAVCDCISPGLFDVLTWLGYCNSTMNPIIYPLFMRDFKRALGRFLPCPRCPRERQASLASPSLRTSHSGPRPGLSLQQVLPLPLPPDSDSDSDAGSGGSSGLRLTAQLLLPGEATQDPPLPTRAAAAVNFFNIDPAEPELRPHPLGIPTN

[3] = target: T1, 5-hydroxytryptamine receptor 1A (Homo sapiens, UniProt P08908); test: Displacement of [3H]-8-OHDPAT from recombinant human 5HT1A receptor expressed in HEK293 cells measured after 1 hr by microbeta counting method
T1 sequence (P08908 whole entry): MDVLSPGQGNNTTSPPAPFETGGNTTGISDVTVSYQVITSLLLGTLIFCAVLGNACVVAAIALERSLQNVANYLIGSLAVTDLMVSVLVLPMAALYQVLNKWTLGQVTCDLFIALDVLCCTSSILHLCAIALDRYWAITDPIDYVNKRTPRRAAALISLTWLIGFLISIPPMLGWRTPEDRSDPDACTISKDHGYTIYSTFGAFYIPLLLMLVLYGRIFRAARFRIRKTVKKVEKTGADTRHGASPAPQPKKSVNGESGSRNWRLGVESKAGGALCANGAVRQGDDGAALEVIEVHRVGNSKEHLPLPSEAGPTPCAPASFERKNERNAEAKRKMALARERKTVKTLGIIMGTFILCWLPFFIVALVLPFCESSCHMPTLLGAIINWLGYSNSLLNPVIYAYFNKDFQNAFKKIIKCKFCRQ

[4] = target: 5-hydroxytryptamine receptor 7 (Homo sapiens, UniProt P34969); test: Displacement of [3H]-5-CT from recombinant human 5HT7B receptor expressed in HEK293 cells measured after 1 hr by microbeta counting method
Chain of 5-hydroxytryptamine receptor 7 (P34969 whole entry): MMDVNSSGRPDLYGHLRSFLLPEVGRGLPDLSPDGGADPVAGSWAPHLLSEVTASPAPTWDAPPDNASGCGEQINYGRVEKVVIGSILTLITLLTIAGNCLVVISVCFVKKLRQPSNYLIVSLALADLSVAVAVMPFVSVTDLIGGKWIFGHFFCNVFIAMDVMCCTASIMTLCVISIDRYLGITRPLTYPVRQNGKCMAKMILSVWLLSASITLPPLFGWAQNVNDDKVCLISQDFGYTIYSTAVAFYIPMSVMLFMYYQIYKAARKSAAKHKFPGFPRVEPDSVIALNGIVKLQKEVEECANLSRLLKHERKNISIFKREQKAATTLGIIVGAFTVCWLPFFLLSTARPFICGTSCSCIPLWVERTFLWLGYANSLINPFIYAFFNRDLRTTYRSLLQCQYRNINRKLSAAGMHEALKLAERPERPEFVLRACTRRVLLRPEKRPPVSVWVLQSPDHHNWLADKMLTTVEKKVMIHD

Chain of 5-hydroxytryptamine receptor 2A (P28223 whole entry): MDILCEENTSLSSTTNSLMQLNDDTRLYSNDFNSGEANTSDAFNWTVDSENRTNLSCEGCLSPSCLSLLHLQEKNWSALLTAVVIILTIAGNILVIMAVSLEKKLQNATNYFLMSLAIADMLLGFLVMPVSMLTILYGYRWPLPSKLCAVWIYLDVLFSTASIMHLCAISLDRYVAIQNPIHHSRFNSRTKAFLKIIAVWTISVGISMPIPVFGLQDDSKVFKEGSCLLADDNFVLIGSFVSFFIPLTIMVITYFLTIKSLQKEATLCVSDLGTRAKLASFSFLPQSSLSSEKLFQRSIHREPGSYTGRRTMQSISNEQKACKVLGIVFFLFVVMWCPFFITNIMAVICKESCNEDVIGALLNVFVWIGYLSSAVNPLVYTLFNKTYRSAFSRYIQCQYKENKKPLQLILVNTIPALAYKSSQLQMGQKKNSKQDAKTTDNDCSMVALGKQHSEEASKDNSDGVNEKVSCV

SMILES | pKi [1] | pKi (D(2) dopamine receptor) | pKi [2] | pKi [3] | pKi [4]
O=C1c2cccc3cccc(c23)C(=O)N1CCCCCCN1CCN(c2ccccc2[N+](=O)[O-])CC1 | 5.72 | 6.85 | 5.85 | 6.43 | 6.15
CCOc1ccccc1N1CCN(CCCCCCN2C(=O)c3cccc4cccc2c34)CC1 | 6.14 | 7.96 | 5.72 | 7.66 | 7.08
O=C1c2cccc3cccc(c23)N1CCCCCCN1CCN(c2ccccn2)CC1 | 6.05 | 6.06 | 5.84 | 7.49 | 6.74
COc1cccc(N2CCN(CCCCCCN3C(=O)c4cccc5cccc3c45)CC2)c1 | 6.19 | 6.94 | 5.77 | 7.33 | 6.44
O=C1c2cccc3cccc(c23)N1CCCCCCN1CCN(c2ccccc2[N+](=O)[O-])CC1 | 5.40 | 6.37 | 6.02 | 5.02 | 6.16
CCOc1ccccc1N1CCN(CCCCCCN2c3cccc4cccc(c34)S2(=O)=O)CC1 | 6.24 | 7.52 | 6.32 | 7.32 | 7.47
COc1ccc(N2CCN(CCCCCCN3C(=O)c4cccc5cccc3c45)CC2)cc1 | 5.72 | 6.74 | 5.44 | 6.54 | 5.43
COc1ccc(N2CCN(CCCCCCN3C(=O)c4cccc5cccc(c45)C3=O)CC2)cc1 | 4.22 | 4.40 | 5.24 | 5.45 | 3.93

Now from value to compound:

pKi [1] | pKi (D(2) dopamine receptor) | pKi [2] | pKi [3] | pKi [4] | SMILES
6.47 | 8.00 | 6.17 | 7.70 | 6.58 | COc1ccccc1N1CCN(CCCCCCN2C(=O)c3cccc4cccc(c34)C2=O)CC1
6.27 | 6.58 | 6.31 | 6.32 | 6.09 | O=[N+]([O-])c1ccccc1N1CCN(CCCCCCN2c3cccc4cccc(c34)S2(=O)=O)CC1
6.35 | 6.93 | 6.74 | 7.46 | 6.46 | O=S1(=O)c2cccc3cccc(c23)N1CCCCCCN1CCN(c2ccccn2)CC1
6.48 | 6.57 | 6.46 | 7.33 | 6.43 | COc1cccc(N2CCN(CCCCCCN3C(=O)c4cccc5cccc(c45)C3=O)CC2)c1
6.65 | 7.09 | 6.00 | 7.66 | 6.92 | O=C1c2cccc3cccc(c23)N1CCCCCCN1CCN(c2cccc3cccnc23)CC1
6.34 | 7.57 | 6.61 | 7.55 | 7.14 | CCOc1ccccc1N1CCN(CCCCCCN2C(=O)c3cccc4cccc(c34)C2=O)CC1
6.34 | 8.70 | 5.49 | 7.72 | 6.54 | COc1ccccc1N1CCN(CCCCCCn2c(=O)n3c4c(cccc42)CCC3)CC1
7.37 | 6.73 | 5.28 | 7.03 | 6.32 | O=C1c2cccc3cccc(c23)N1CCCCCCN1CCN(c2ncccn2)CC1
6.25 | 5.89 | 5.71 | 6.76 | 5.92 | O=C1c2cccc3cccc(c23)C(=O)N1CCCCCCN1CCN(c2ccccn2)CC1
